According to patent publication US20260041661A1, “THREE-COMPONENT PRODRUG, PHARMACEUTICAL COMPOSITION THEREOF, AND MEDICAL USE THEREOF” (J2H BIOTECH INC., priority 2022, published 2026):
Structures can show the parent of a compound that is named as a salt.

Columns and labels:
[1] = system: EAE mice (experimental autoimmune encephalomyelitis); experiment: Efficacy in EAE animal model of multiple sclerosis: clinical score; assay type: in vivo, C57BL/6 mice; details: for Clinical Score (Day 21): day 2-21, score 0 to 5, vehicle group 3.2
[2] = system: CD4 T cells, CD8 T cells, Th1 cells and Th17 cells; experiment: Immune cell infiltration in EAE mice by flow cytometry; assay type: in vivo, C57BL/6 mice; details: for CD8 T Cell (%) / CD4 T Cell (%): tissue not given; for CD8 T Cell (%): vehicle group 16.0; for CD4 T Cell (%): vehicle group 23.2; for Th17 Cell (%): vehicle group 12.4; for Th1 Cell (%): vehicle group 15.4
prostaglandin D2 (PGD2) = experiment: Toxicity evaluation: flushing side effect by blood prostaglandin D2 concentration (ELISA); assay type: in vivo; details: C57BL6 male mice, 165.6 mg/kg vs DMF 60 mg/kg, 5 minutes after administration
Protocol: The flushing phenomenon was confirmed through analysis of the concentration of prostaglandin D2 (PGD2) in the blood. PGD2 is a bio-derived substance closely related to the flushing phenomenon, and the concentration analysis of PGD2 in the blood is known as a standard test method for predicting the side effects of drugs. (The journal of pharmacology and experimental therapeutics, 2008, 327(3), 665.) The test method was conducted by dividing C57BL6 male mice into three groups as test animals. […] PGD2 present in the collected blood was measured using an Elisa kit (#CSB-E14022m, CUSABIO).

[3] = cited from earlier work
[4] = RRMS patients, DRF 462 mg twice daily for 5 weeks; cited from earlier work
[5] = EVOLVE-MS-1 phase 3 clinical program

## COC(=O)/C=C/C(=O)Oc1ccc(COC(=O)c2ccccc2OC(C)=O)cc1 [Example 1, 4-((acetoxybenzoyloxy)methyl)phenyl Methyl Fumarate]
[1]; chemical formula 1 82.8 mpk oral twice a day
  Clinical Score (Day 21): 2.0
[1]; chemical formula 1 165.6 mpk oral twice a day
  Clinical Score (Day 21): 1.5
[1]; low dose (G5, 82.8 mg/kg) and high dose (G6, 165.6 mg/kg)
  Clinical score improvement: significant clinical score improvement effects
[2]; FIG. 1, low-dose (G5) and high-dose (G6)
  Infiltration rate of CD4 and CD8 T cells in the lymph nodes compared to disease-induced group (G2): significant decrease
[2]; FIG. 2, low-dose (G5) and high-dose (G6)
  Infiltration rate of CD4 and CD8 T cells in the central nervous system compared to disease-induced group (G2): significant decrease
[2]; FIG. 3, low-dose (G5) and high-dose (G6)
  Infiltration rate of Th1 and Th17 cells in the lymph nodes compared to disease-induced group (G2): decrease
[2]; chemical formula 1 82.8 mpk
  CD8 T Cell (%): 7.8%
  CD4 T Cell (%): 11.2%
  Th17 Cell (%): 8.8%
  Th1 Cell (%): 8.8%
[2]; chemical formula 1 165.6 mpk
  CD8 T Cell (%): 4.7%
  CD4 T Cell (%): 6.5%
  Th17 Cell (%): 7.5%
  Th1 Cell (%): 6.4%
Prostaglandin D2 (PGD2)
  Decrease of blood PGD2 compared to the group administered with dimethyl fumarate: 76.6%

## COC(=O)/C=C/C(=O)OC [Dimethyl fumarate]
[1]; DMF 30 mpk oral twice a day
  Clinical Score (Day 21): 2.3
[1]; DMF 60 mpk oral twice a day
  Clinical Score (Day 21): 1.3
[1]; low (G3, 30 mg/kg) and high (G4, 60 mg/kg) dose
  Severity of the disease (clinical score) vs negative control: significantly reduced the severity of the disease
[2]; DMF 30 mpk
  CD8 T Cell (%): 8.8%
  CD4 T Cell (%): 13.1%
  Th17 Cell (%): 10.1%
  Th1 Cell (%): 10.2%
[2]; DMF 60 mpk
  CD8 T Cell (%): 8.5%
  CD4 T Cell (%): 13.8%
  Th17 Cell (%): 6.3%
  Th1 Cell (%): 7.9%

## COC(=O)/C=C/C(=O)OCCN1C(=O)CCC1=O [diroximel fumarate]
[3]; [5]
  Subjects who discontinued administration: 14.9%
  Subjects who discontinued due to drug-induced side effects: 6.3%
[3]; all patients administered DRF, phase 3 clinical trials
  Incidence of gastrointestinal side effects (GI TEAEs): more than 30%
[3]; phase 3 clinical trials, vs the 40% incidence with DMF
  Decrease of incidence of gastrointestinal side effects compared to DMF group: 10%
[4]
  Diarrhea, frequency reported: 15.4%
  Flushing, frequency reported: 32.8%
  Nausea, frequency reported: 14.6%
